# Results published in publication PMC11087268, “A folate inhibitor exploits metabolic differences in Pseudomonas aeruginosa for narrow-spectrum targeting” (Nature Microbiology, 2024).
# Legend:
# [1] = system: Salmonella typhimurium CMCC 50115; assay: MIC (WuXi, Mueller–Hinton broth) against S. typhimurium; type: cell-based; conditions: Salmonella enterica, performed by WuXi
# Procedure: (§1) Bacterial colonies (4–8) of strains of interest were vortexed in saline and adjusted to an OD600 of 0.2. Strains were diluted 1:200 into CAMHB media in 96-well plates. Antibiotics were serially diluted 1:3 in DMSO, and 1 μl of each dilution was added to bacteria. The plates were incubated for 18–20 h at 37 °C before observation.
# [2] = system: Staphylococcus epidermidis EGM-206; assay: MIC against S. epidermidis EGM-206 in LB broth; type: cell-based; conditions: EGM206, 16 h, 37 °C, OD600
# Procedure: (§2) Overnight cultures were diluted 1:150 in LB broth and added to a 96-well plate. Antibiotics were serially diluted 1:2 and added to columns of the 96-well plate and grown at 37 °C with continuous shaking. Cell growth was measured using optical density at 600 nm (OD600). MIC assays were performed in either BioTek Synergy HT or Tecan InfiniteM200 Pro microplate readers.
# [3] = system: Staphylococcus aureus USA300; assay: MIC against S. aureus USA300 in LB broth; type: cell-based; conditions: USA300, 16 h
# Procedure: as §2
# [4] = system: Acinetobacter baumannii ATCC 17978; assay: MIC (WuXi, Mueller–Hinton broth) against A. baumannii ATCC 17978; type: cell-based; conditions: ATCC17978, performed by WuXi
# Procedure: as §1
# [5] = system: Klebsiella pneumoniae ATCC 438165; assay: MIC against K. pneumoniae in LB broth; type: cell-based; conditions: ATCC438165, 16 h, 37 °C, OD600
# Procedure: as §2
# [6] = system: P. aeruginosa PA14; assay: Colony-forming units counting after antibiotic treatment; type: cell-based, Pseudomonas aeruginosa; conditions: for PA14 CFU/mL, Mean: 2× MIC (fluorofolin 6.2, TMP 250, polymixin B 4 μg ml^−1)
# Procedure: P. aeruginosa PA14 overnight cultures were diluted 1:100 and grown to exponential phase (OD600 = 0.4–0.6). Cultures were diluted 1:10 and treated with antibiotic. At each time point, 150 μl of culture was removed, serial diluted 1:10 six times and plated onto LB agar plates. Plates were grown overnight at 37 °C, after which visible colonies were counted. C.f.u.s ml^−1 are reported from dilutions in which ~10–100 single colonies were visible.
# [7] = system: HK-2 (human kidney epithelial); assay: Mammalian cell cytotoxicity, HK-2; type: cell-based; conditions: 72 h, CyQUANT, read-out: IC50 Fluorofolin
# Procedure: (§3) HK-2 (500 cells per well) (ATCC CRL-2190), HLF (500 cells per well) (Cell Applications 506K-05a), WI-38 (500 cells per well) (ATCC CCL-75) or PBMC (5,000 cells per well) (TPCS PB010C) cells were seeded in white opaque 384-well plates. After 24 h, DMSO or compounds were added in 3-fold dilutions and cells incubated for 72 h. For PBMC, CellTiter-Glo reagent was added in equal volume and incubated for 30 min, after which luminescence was read. For other cell types, CyQUANT detection reagent was added in equal volume and cells incubated for 1 h, after which fluorescence was read with standard green filter set […]. Cell toxicity was evaluated by Pharmaron.
# [8] = system: PBMC (peripheral blood mononuclear cell); assay: Mammalian cell cytotoxicity, PBMC; type: cell-based, human
# Procedure: as §3
# [9] = Maximum tolerated dose; conditions: female, mouse, in vivo, sc; CD-1 mice, subcutaneous
# Description: For P. aeruginosa thigh infection model and maximum tolerated dose (MTD) studies, care and handling of female 5–6-week-old CD-1 conformed to Institutional Animal Care and Use Committee (IACUC) policies as carried out at the University of North Texas Health Science Center (Fort Worth, Texas) under UNTHSC IACUC-approved protocol nos. IACUC-2021-0003 and IACUC-2020-0039. Rodents were fed either base chow (Envigo) or base diet supplemented with 1.8 g kg^−1 thymidine (Sigma T9250) starting at 2 days before infection. All procedures were conducted in accordance with the UNTHSC IACUC-approved protocol. Animals were housed in rooms undergoing 10–15 air changes per hour. Air provided to the animal rooms was controlled for temperature and humidity and is fully monitored 24 h a day. Air pressure was balanced according to room use. Lighting was controlled in individual rooms by automatic timers with a standard 12 h on, 12 h off cycle.
# MTD was determined by administration of compounds at increasing dosage until the maximum dose before adverse reactions were observed. Doses were increased in a stepwise manner from 1 mg kg^−1 to 5, 10, 25 and 50 mg kg^−1. […] The maximum tolerated dose of fluorofolin was determined to be 25 mg kg^−1 administered subcutaneously. MTD was evaluated by the UNTHSC.
# [10] = system: E. faecalis; assay: Growth with or without TMI supplementation and fluorofolin, E. faecalis; type: cell-based, Enterococcus faecalis; conditions: fluorofolin 2X MIC
# Procedure: Where listed, growth media were prepared according manufacturer recommendations: LB broth and LB broth supplemented with 0.3 mM thymine (BD Biosciences 244610, Alfa Aesar A15879), 0.3 mM methionine (Sigma-Aldrich M9625), 0.3 mM inosine (EMD Millipore 4060), cation-adjusted Mueller–Hinton II broth (CAMHB) (BD 212322) or 0.3 mM thymidine (Sigma-Aldrich T1895), Gutnick minimal media (1.0 g l^−1 K2SO4, 13.5 g l^−1 K2HPO4, 4.7 g l^−1 KH2PO4, 0.1 g l^−1 MgSO4·7H2O, 10 mM NH4Cl as a nitrogen source and 0.4% w/v glucose as a carbon source)[65].
# Extended Data Fig. 3 TMI supplementation can also rescue other species from fluorofolin DHFR inhibition. […] (f) P. aeruginosa PA14 or E. coli lptd4213 treated with fluorofolin 50 μg/mL in the presence or absence of 0.3 mM thymidine. (g) E. coli lptd4213 treated with fluorofolin 50 μg/mL and SMX (78.1 μg/mL) in the presence or absence of 0.3 mM thymidine or 0.3 mM TMI supplementation, Curves represent average optical at 600 nm (OD600) of 2 biological replicates. Means are shown. Source data
structure (smiles),measurement,setting,value
Nc1nc(N)c2c(ccc3c2ccn3Cc2ccnc(F)c2)n1 [fluorofolin],MIC,[1],0.03 µg/mL
same,MIC,[2],0.312 µg/mL
same,MIC,[3],0.4 µg/mL
same,MIC,[4],0.8 µg/mL
same,MIC,[5],6.25 µg/mL
same,type of antibacterial activity,"[6]; PA14, rich media",bacteriostatic
same,"PA14 CFU/mL, Mean",[6]; Time 0 h,197000 CFU/mL
same,"PA14 CFU/mL, Mean",[6]; Time 1 h,211000 CFU/mL
same,"PA14 CFU/mL, Mean",[6]; Time 2 h,171000 CFU/mL
same,"PA14 CFU/mL, Mean",[6]; Time 4 h,206667 CFU/mL
same,IC50,[7],51.7 µg/mL
same,IC50,"[8]; Homo sapiens, PBMC, 72 h, CellTiter-Glo, read-out: IC50 Fluorofolin",39.8 µg/mL
same,increase in IC50 compared with IRS-16,[8]; PBMCs,9.6 fold
same,MTD,[9],25 mg/kg
same,rescue of growth inhibition by TMI supplementation,[10],could also be rescued from fluorofolin growth inhibition by TMI supplementation
